Measured values taken from ChEMBL document CHEMBL1137953, “A novel approach to the synthesis of cytotoxic C2-C3 unsaturated pyrrolo[2,1-c]benzodiazepines (PBDs) with conjugated acrylyl C2-substituents” (2004).

Columns and labels:
Type in all cases: functional
[1] = Compound was evaluated for total growth inhibition of 60 cell lines in NCI screen
[2] = Lethal concentration of compound was evaluated against 60 cell lines in NCI screen
[3] = Compound was evaluated for growth inhibition of 60 cell lines in NCI screen
HCT-116 = experiment: Compound was evaluated for growth inhibition of colon HCT116 cell line in NCI 60-cell line screen; settings: Homo sapiens
PC-3 = experiment: Compound was evaluated for growth inhibition of prostate PC-3 cell line in NCI 60-cell line screen; settings: Homo sapiens
RXF 393 = experiment: Compound was evaluated for growth inhibition of renal RXF-393 cell line in NCI 60-cell line screen; settings: Homo sapiens
OVCAR-5 = experiment: Compound was evaluated for growth inhibition of ovarian OVCAR-5 cell line in NCI 60-cell line screen; settings: Homo sapiens
U-251 = experiment: Compound was evaluated for growth inhibition of central nervous system U251 cell line in NCI 60-cell line screen; settings: Homo sapiens
MCF7 = experiment: Compound was evaluated for growth inhibition of breast MCF-7 cell line in NCI 60-cell line screen; settings: Homo sapiens
UACC-257 = experiment: Compound was evaluated for growth inhibition of melanoma UACC-257 cell line in NCI 60-cell line screen; settings: Homo sapiens
HOP-92 = experiment: Compound was evaluated for growth inhibition of non-small cell lung HOP-92 cell line in NCI 60-cell line screen; settings: Homo sapiens
CCRF-CEM = experiment: Compound was evaluated for growth inhibition of leukemia CCRF-CEM cell line in NCI 60-cell line screen; settings: Homo sapiens

`COc1cc2c(cc1OC)C(=O)N1C=C(/C=C/C(N)=O)C[C@H]1C=N2` showed a TGI [1] of 3720 nM, an LC50 (50% lethal concentration) [2] of 69200 nM and a GI50 [3] of 53 nM.
Compound `COC(=O)/C=C/C1=CN2C(=O)c3cc(OC)c(OC)cc3N=C[C@@H]2C1` has a TGI [1] of 1320 nM, an LC50 (50% lethal concentration) [2] of 55000 nM and a GI50 [3] of 13 nM.
For `COc1cc2c(cc1OC)C(=O)N1C=C(/C=C/C(=O)N(C)C)C[C@H]1C=N2`, the GI50 (HCT-116) was 11.7 nM, the GI50 (PC-3) was 18.6 nM and the GI50 (RXF 393) was 1.65 nM. For the same compound, the GI50 (OVCAR-5) was 3.21 nM, the TGI [1] was 96 nM and the GI50 (U-251) was 3.33 nM. For the same compound, the GI50 (MCF7) was 7.15 nM, the GI50 (UACC-257) was 0.25 nM and the LC50 (50% lethal concentration) [2] was 650 nM. The GI50 [3] was 12 nM, the GI50 (HOP-92) was 2.34 nM and the GI50 (CCRF-CEM) was 0.6 nM.
`Cc1ccc2c(c1O)NC(O)C1CC(/C=C/C(N)=O)=CN1C2=O` (stereo not given) [ANTHRAMYCIN] gave a GI50 (HCT-116) of 39.8 nM, a GI50 (PC-3) of 20 nM and a GI50 (RXF 393) of 31.6 nM. For the same compound, the GI50 (OVCAR-5) was 50.1 nM, the TGI [1] was 610 nM and the GI50 (U-251) was 20 nM. For the same compound, the GI50 (MCF7) was 39.8 nM, the GI50 (UACC-257) was 63.1 nM and the LC50 (50% lethal concentration) [2] was 12700 nM. The GI50 [3] was 29 nM, the GI50 (HOP-92) was 20 nM and the GI50 (CCRF-CEM) was 20 nM.
